Legend:
[1] = drinking water pH 6.0 with 10 mM QCP, 2 months, standard chow or sugar low diet
Excerpt: The body weight development with and without peptide treatment is compared over 2 months. […] In corresponding experiments, rabbits are to be employed.

[2] = target: T1, rbSGLT1 (Oryctolagus cuniculus, UniProt P11170); assay: rbSGLT1 expressed [14C]AMG uptake in oocytes after peptide injection; format: cell-based, rabbit; settings: 50 nl containing 3 mM of each peptide, 30 min, 50 μM [14C]AMG; compared with hSGLT1
T1 construct: expressed in transfected cells; host or cells: Xenopus laevis oocytes (cRNA injection)
T1 sequence (P11170 1-662): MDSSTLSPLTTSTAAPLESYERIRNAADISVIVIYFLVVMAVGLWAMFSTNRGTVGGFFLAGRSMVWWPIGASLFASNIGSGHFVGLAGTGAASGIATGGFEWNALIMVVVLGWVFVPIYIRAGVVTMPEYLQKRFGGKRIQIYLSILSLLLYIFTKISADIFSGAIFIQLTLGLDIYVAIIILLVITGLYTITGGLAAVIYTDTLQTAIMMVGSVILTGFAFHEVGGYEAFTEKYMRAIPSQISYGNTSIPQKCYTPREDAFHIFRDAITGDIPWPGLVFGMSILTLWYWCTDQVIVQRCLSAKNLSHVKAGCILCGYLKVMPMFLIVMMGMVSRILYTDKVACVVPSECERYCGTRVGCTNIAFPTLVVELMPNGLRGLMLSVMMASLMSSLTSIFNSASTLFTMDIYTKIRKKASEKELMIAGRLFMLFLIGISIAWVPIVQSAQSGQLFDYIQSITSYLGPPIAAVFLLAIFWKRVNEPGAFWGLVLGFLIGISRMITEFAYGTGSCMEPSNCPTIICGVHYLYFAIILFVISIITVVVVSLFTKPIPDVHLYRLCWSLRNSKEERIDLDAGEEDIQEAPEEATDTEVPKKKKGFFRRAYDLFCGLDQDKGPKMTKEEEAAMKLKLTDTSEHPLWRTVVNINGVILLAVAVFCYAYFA
Method: (§1) The oocytes were incubated for three days at 16° C. in ORi buffer (in mM: 5 HEPES-Tris, pH 7.4, 100 NaCl, 3 KCl, 2 CaCl2, and 1 MgCl2). […] The oocytes were superfused with Ori buffer titrated to pH 6.5, the membrane potential of the oocytes was clamped to −40 mV, and inward current induced by superfusion with Ori buffer (pH 6.5) containing 5 mM of a control dipeptide or 5 mM of the tested tripeptide was measured. • (D) Expression and Purification of hRS1
To develop drugs on the basis of the identified peptides animal models are required.

[3] = target: SGLT1 (Mus musculus, UniProt Q8C3K6); settings: 60 min pre-incubation, pH 6.5, 3 mM QCP, 0.1 mM D-glucose
Method: Walls of small intestinal mucosa from mice are inserted into an Ussing chamber and the SGLT1 mediated transepitehila currents are measured that are induced by addition of 0.1 mM D-glucose to the mucosal side. […] After washing glucose-induced transepithelial currents are measured.

[4] = target: hOCT2 (Homo sapiens, UniProt O15244); settings: intracellular AMG 0.1 mM, <0.01 mM or 10 mM
Method: Corresponding measurements were performed in the presence of intracellular AMG concentrations of 0.1 mM, <0.01 mM or 10 mM.

[5] = target: T2, hPEPT1 (Homo sapiens, UniProt P46059); assay: Electrogenic peptide transport by hPEPT1 in oocytes, two-electrode voltage clamp; format: cell-based; settings: pH 6.5
T2 construct: expressed in transfected cells; host or cells: Xenopus laevis oocytes (30 ng cRNA per oocyte)
T2 sequence (P46059 1-708): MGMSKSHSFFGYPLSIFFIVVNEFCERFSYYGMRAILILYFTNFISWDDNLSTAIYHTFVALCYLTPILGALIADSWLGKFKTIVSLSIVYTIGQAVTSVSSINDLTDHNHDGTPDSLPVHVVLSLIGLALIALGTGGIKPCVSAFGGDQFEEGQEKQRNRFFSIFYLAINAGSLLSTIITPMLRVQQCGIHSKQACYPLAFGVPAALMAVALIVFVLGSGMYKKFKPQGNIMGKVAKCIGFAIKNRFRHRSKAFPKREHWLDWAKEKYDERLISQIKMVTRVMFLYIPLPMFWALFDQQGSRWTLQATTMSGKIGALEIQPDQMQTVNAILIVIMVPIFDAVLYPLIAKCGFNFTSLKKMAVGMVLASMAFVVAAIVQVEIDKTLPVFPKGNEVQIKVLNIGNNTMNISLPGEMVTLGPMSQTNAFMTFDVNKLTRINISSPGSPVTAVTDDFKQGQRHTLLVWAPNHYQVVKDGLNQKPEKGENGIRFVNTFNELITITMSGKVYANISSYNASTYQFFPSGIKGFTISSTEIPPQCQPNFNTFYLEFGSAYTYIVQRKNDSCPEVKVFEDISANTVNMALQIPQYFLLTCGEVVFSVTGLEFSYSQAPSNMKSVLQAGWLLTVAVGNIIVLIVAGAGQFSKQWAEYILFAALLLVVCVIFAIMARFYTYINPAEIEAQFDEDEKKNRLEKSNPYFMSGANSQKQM
Method: as §1

[6] = test system: sodium dependent amino acid transporters; settings: 60 min, pH 6.5, 3 mM QCP; 10 mM amino acids
Method: Walls of small intestinal mucosa from mice are inserted into an Ussing chamber and transepitehial currents are measured that are induced by addition of 10 mM of various amino acids to the mucosal side.

[7] = target: T3, hSGLT1 (Homo sapiens, UniProt P13866); assay: hSGLT1 expressed [14C]AMG uptake in Xenopus oocytes after injection of hRS1 protein or peptides; format: cell-based
T3 construct: expressed in transfected cells; host or cells: Xenopus laevis oocytes (cRNA injection)
T3 sequence (P13866 1-664): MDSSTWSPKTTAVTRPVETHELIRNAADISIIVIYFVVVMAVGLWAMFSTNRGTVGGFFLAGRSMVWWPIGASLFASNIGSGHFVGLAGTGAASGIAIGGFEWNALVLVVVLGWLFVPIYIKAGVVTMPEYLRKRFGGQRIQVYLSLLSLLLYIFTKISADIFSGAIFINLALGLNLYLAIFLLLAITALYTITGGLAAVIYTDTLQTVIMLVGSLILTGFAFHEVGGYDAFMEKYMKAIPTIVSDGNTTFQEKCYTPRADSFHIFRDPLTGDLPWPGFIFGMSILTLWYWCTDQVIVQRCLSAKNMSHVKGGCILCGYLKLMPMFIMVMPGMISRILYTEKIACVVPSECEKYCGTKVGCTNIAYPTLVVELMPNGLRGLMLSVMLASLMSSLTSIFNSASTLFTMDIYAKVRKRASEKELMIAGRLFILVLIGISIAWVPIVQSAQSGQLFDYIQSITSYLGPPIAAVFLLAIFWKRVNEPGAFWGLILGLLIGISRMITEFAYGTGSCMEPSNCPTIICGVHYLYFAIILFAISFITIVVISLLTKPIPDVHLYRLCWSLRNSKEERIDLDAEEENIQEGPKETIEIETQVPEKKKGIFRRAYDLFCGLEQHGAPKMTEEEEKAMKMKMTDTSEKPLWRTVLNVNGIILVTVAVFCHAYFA

[8] = target: T3, hSGLT1; assay: [14C]AMG uptake in oocytes after incubation with tripeptide in the medium; format: cell-based; settings: pH 6.5
Method: In a different experimental setup, oocytes were injected with SGLT1 cRNA (2.5 ng per oocyte) or with hSGLT1 cRNA (2.5 ng per oocyte) plus hPEPT1 cRNA (10 ng per oocyte) and the oocytes were incubated 3 days for expression. Thereafter the oocytes were incubated 30 min with Ori buffer adjusted to pH 6.5 or with Ori buffer adjusted to pH 6.5 containing 3 mM of the tested tripeptide. Thereafter oocytes were washed with Ori buffer (pH 7.4) and uptake of [^14C]AMG was measured. • (F) Measurements of [^14C]AMG Uptake
Uptake measurements were performed as described (Veyhl (2003), J. Membrane Biol., 196, 71-81). Oocytes were incubated for 15 min at room temperature in ORi buffer containing 50 μM [^14C]AMG without or with 100 μM of the SGLT1 inhibitor phlorizin. The uptake was blocked and oocytes were washed with ice cold Ori buffer containing 100 μM phlorizin. Radioactivity in the oocytes was measured by liquid scintillation counting.
Thereafter the oocytes were washed with neutral Ori buffer and the hSGLT1 expressed uptake of 50 μM [^14C]AMG was measured (FIG. 7). […] Incubation of oocytes expressing hSGLT1 plus hPEPT1 with PCQ had no effect on the expressed uptake of [^14C]AMG.

Sequence of SGLT1 (Q8C3K6 whole entry): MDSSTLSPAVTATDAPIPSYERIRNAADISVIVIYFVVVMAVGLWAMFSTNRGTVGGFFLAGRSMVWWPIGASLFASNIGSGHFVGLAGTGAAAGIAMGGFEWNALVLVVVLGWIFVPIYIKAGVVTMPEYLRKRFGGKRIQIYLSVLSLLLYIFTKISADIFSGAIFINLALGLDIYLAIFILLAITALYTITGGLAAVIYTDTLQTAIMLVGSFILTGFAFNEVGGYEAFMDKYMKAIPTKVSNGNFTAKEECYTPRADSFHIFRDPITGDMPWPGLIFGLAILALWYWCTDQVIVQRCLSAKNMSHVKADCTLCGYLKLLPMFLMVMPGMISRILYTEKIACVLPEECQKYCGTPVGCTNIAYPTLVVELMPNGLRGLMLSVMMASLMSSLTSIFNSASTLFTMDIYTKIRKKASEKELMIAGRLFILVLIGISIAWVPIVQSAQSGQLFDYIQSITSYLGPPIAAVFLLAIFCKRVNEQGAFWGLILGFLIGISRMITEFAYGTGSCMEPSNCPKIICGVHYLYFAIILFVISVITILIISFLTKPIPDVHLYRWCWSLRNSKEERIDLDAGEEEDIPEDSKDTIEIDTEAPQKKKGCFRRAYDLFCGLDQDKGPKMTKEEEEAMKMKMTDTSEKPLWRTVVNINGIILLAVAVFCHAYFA
Sequence of hOCT2 (O15244 whole entry): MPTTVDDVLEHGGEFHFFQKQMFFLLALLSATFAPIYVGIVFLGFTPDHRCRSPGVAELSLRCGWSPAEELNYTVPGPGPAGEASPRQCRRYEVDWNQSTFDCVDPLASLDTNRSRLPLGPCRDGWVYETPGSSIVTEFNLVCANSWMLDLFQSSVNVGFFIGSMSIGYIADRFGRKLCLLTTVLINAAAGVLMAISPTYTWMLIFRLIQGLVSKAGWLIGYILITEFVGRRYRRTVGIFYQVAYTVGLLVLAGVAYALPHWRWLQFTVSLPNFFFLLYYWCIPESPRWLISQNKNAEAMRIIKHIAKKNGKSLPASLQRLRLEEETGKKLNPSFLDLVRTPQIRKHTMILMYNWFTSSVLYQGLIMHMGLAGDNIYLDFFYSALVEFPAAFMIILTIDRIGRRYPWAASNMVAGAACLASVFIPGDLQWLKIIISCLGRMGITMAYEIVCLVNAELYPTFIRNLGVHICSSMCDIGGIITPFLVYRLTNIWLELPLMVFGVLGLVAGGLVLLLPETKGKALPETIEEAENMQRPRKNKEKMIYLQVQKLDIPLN

Glutamine-Cysteine-Proline [QCP]
body weight after feeding [1]: body weight is reduced | effect on glucose uptake expressed by rbSGLT1 [2]: same effect | transepithelial glucose flux [3]: inhibits transepithelial glucose flux | hOCT2 expressed [14C]TEA uptake after injection [4]: appears not to be inhibited | inward current in control oocytes not injected with hPEP1-cRNA [5]: no inward currents | inward current induced in oocytes expressing hPEPT1 [5]: significant inward currents | transepithelial flux of amino acids [6]: inhibits transepithelial flux of amino acids | inhibition of AMG uptake in the absence of BTXB [7]: inhibited | inhibition of AMG uptake in the presence of BTXB [7]: no significant inhibition | inhibition of glucose uptake expressed by hSGLT1 [7]: about 50% | inhibition of hSGLT1 expressed AMG uptake [7]: 35-40% | inhibition of hSGLT1 expressed AMG uptake after stimulation of protein kinase C [7]: not changed | inhibition of hSGLT1 expressed AMG uptake with coexpressed dominant negative mutant of dynamin I [7]: not changed | inhibition of hSGLT1 expressed uptake of AMG after 3 h [7]: 60% | inhibition of hSGLT1 expressed uptake of AMG after 5 h [7]: about 40% | inhibition of hSGLT1 expressed uptake of AMG after 10 h [7]: 20-30% | inhibition of hSGLT1 in dependence of intracellular monosaccharide concentration [7]: inhibits hSGLT1 at low or high concentrations of intracellular monosaccharides | inhibitory effect on expression of hSGLT1 when the exocytotic pathway is blocked [7]: could be prevented | intracellular concentration of QCP giving 35-40% inhibition of hSGLT1 expressed glucose uptake [7]: below 5 nM | effect on AMG uptake in oocytes in which hSGLT1 but not hPEPT1 was expressed [8]: no effect | inhibition of [14C]AMG uptake in oocytes expressing hSGLT1 plus hPEPT1 [8]: about 50%

From US9155778B2, “Tripeptides that down regulate the activity of plasma membrane transporters including sodium-D-glucose cotransporter SgIt1” (JULIUS-MAXMILLIANS-UNIVERSITAT WURZBURG, priority 2005, dated 2015)
